One data set can be described thus: Aqueous solubility. Type of data set: physicochemical. To be noted: aqueous solvent (not further specified), μg compound/mL solvent.
The target of another data set is human MIF (Homo sapiens (Human), UniProt P14174). Kind of data set: Inhibition of tautomerase activity of human MIF (HPP substrate). Format: biochemical. The settings on record: for Ki: MIF tautomerase, HPP substrate, 50 nM MIF; for inhibition at 10 µM: read-out: % inhibition at 10 μM.

Results on 41 compounds are retold here after patent publication US10336721B2, “Biaryltriazole inhibitors of macrophage migration inhibitory factor” (YALE UNIVERSITY, priority 2015, dated 2019).

SMILES strings stand for the structures. In brackets after ≈: the same amount, converted by molar mass.

Chain of human MIF (P14174 2-115): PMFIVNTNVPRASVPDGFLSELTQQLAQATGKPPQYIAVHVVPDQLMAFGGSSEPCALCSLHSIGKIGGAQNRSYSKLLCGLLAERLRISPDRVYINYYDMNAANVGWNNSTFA

Regarding `Oc1ccc(-n2cc(-c3ccc4ccccc4n3)nn2)cc1` [Example 1, 4-(4-(Quinolin-2-yl)-1H-1,2,3-triazol-1-yl)phenol], the solubility (commonly how much of the substance goes into solution per volume) in the data set “Aqueous solubility” was determined as 2.2 µg/mL (≈ 7.63 µM).
Still for that read-out and setting: then `COCCOc1ccc2nc(-c3cn(-c4ccc(O)cc4)nn3)ccc2c1` [Example 2, 4-(4-(6-(2-Methoxyethoxy)quinolin-2-yl)-1H-1,2,3-triazol-1-yl)phenol], with 3.6 µg/mL (≈ 9.93 µM).
Consider `COCCOc1ccc2nc(-c3cn(-c4ccc(F)cc4)nn3)ccc2c1` [Example 3, 2-(1-(4-Fluorophenyl)-1H-1,2,3-triazol-4-yl)-6-(2-methoxyethoxy)quinoline], for which, on human MIF, the affinity corresponds to a Ki of 8900 nM.
Take `COCCOc1ccc(-c2cn(-c3ccc(Cl)cc3)nn2)nc1` [Example 4, 2-(1-(4-Chlorophenyl)-1H-1,2,3-triazol-4-yl)-5-(2-methoxyethoxy)pyridine]: on human MIF, the inhibition (commonly how much of the control response was suppressed) at 10 µM is 3%.
Same read-out and setting: with `COCCOc1ccc2nc(-c3cn(-c4ccc(N)cc4)nn3)ccc2c1` [Example 5, 4-(4-(6-(2-Methoxyethoxy)quinolin-2-yl)-1H-1,2,3-triazol-1-yl)aniline] the figure was 13%; with `COCCOc1ccc2nc(-c3cn(-c4ccc(OC)cc4)nn3)ccc2c1` [Example 6, 6-(2-Methoxyethoxy)-2-(1-(4-methoxyphenyl)-1H-1,2,3-triazol-4-yl)quinoline], 0%; with `COCCOc1ccc2nc(-c3cn(-c4ccc(C#N)cc4)nn3)ccc2c1` [Example 7, 4-(4-(6-(2-Methoxyethoxy)quinolin-2-yl)-1H-1,2,3-triazol-1-yl)benzonitrile], 8%.
On the same count and under the same terms, then `COCCOc1ccc2nc(-c3cn(-c4ccc(C(N)=O)cc4)nn3)ccc2c1` [Example 8, 4-(4-(6-(2-Methoxyethoxy)quinolin-2-yl)-1H-1,2,3-triazol-1-yl)benzamide], with 0%.
The same measure, in the same setting: with `COCCOc1ccc2nc(-c3cn(-c4ccc(O)c(C)c4)nn3)ccc2c1` [Example 9, 4-(4-(6-(2-Methoxyethoxy)quinolin-2-yl)-1H-1,2,3-triazol-1-yl)-2-methylphenol] the figure was 15%.
With `COCCOc1ccc2nc(-c3cn(-c4ccc(O)c(OC)c4)nn3)ccc2c1` [Example 10, 2-Methoxy-4-(4-(6-(2-methoxyethoxy)quinolin-2-yl)-1H-1,2,3-triazol-1-yl)phenol], the inhibition at 10 µM at human MIF was found to be 8%.
For `Cc1cc2ccccc2nc1-c1cn(-c2ccc(O)cc2)nn1` [Example 11, 4-(4-(3-Methylquinolin-2-yl)-1H-1,2,3-triazol-1-yl)phenol], the Ki (commonly the equilibrium dissociation constant of an inhibitor or competing ligand from its target) on human MIF worked out at 7300 nM.
Same read-out and setting: with `Cc1cc(-c2cn(-c3ccc(O)cc3)nn2)nc2ccccc12` [Example 12, 4-(4-(4-Methylquinolin-2-yl)-1H-1,2,3-triazol-1-yl)phenol] the figure was 2300 nM.
Regarding `Oc1ccc(-n2cc(-c3ccc4cccc(Cl)c4n3)nn2)cc1` [Example 13, 4-(4-(8-Chloroquinolin-2-yl)-1H-1,2,3-triazol-1-yl)phenol], the inhibition at 10 µM on human MIF was 16%.
In turn, `COc1cccc2ccc(-c3cn(-c4ccc(F)cc4)nn3)nc12` [Example 14, 2-(1-(4-Fluorophenyl)-1H-1,2,3-triazol-4-yl)-8-methoxyquinoline] gave a Ki at human MIF of 56000 nM.
Still for that read-out and setting: with `COCCOc1cccc2ccc(-c3cn(-c4ccc(F)cc4)nn3)nc12` [Example 15, 2-(1-(4-Fluorophenyl)-1H-1,2,3-triazol-4-yl)-8-(3-methoxyethoxy)quinoline] the figure was 64000 nM.
For the compound `COc1ccc(-c2cccc3ccc(-c4cn(-c5ccc(O)cc5)nn4)nc23)cc1` [Example 16, 4-(4-(8-(4-Methoxyphenyl)quinolin-2-yl)-1H-1,2,3-triazol-1-yl)phenol], the inhibition at 10 µM on human MIF came to 21%.
Consider `Oc1ccc(-n2cc(-c3ccc4cccc(Oc5ccccc5)c4n3)nn2)cc1` [Example 17, 4-(4-(8-Phenoxyquinolin-2-yl)-1H-1,2,3-triazol-1-yl)phenol], for which the Ki on human MIF is 2950 nM.
In turn, `Oc1ccc(-n2cc(-c3ccc4c(Oc5ccccc5)cccc4n3)nn2)cc1` [Example 18, 4-(4-(5-Phenoxyquinolin-2-yl)-1H-1,2,3-triazol-1-yl)phenol] came in with a Ki at human MIF of 370 nM.
As for `Oc1ccc(-n2cc(-c3ccc4cc(OCCCN5CCOCC5)ccc4n3)nn2)cc1` [Example 19, 4-(4-(6-(3-Morpholinopropoxy)quinolin-2-yl)-1H-1,2,3-triazol-1-yl)phenol], on human MIF, the inhibition constant Ki was found to be 1950 nM.
Still for that read-out and setting: with `Cc1cc2cc(OCCCN3CCOCC3)ccc2nc1-c1cn(-c2ccc(O)cc2)nn1` [Example 20, 4-(4-(3-Methyl-6-(3-morpholinopropoxy)quinolin-2-yl)-1H-1,2,3-triazol-1-yl)phenol] the figure was 3120 nM.
With `Oc1ccc(-n2cc(-c3ccc4cc(OCCOCCN5CCOCC5)ccc4n3)nn2)cc1` [Example 21, 4-(4-(6-(2-(2-Morpholinoethoxy)ethoxy)quinolin-2-yl)-1H-1,2,3-triazol-1-yl)phenol], in “Aqueous solubility”, the concentration in solution (solubility) came to 48.5 µg/mL (≈ 105 µM).
On the same count and under the same terms, then `Oc1ccc(-n2cc(-c3ccc4cc(OCCOCCN5CCOCC5)ccc4n3)nn2)cc1F` [Example 22, 2-Fluoro-4-(4-(6-(2-(2-morpholinoethoxy)ethoxy)quinolin-2-yl)-1H-1,2,3-triazol-1-yl)phenol], with 27.2 µg/mL (≈ 56.7 µM).
`Fc1ccc(-n2cc(-c3ccc4cc(OCCOCCN5CCOCC5)ccc4n3)nn2)cc1` [Example 23, 4-(2-(2-((2-(1-(4-Fluorophenyl)-1H-1,2,3-triazol-4-yl)quinolin-6-yl)oxy)ethoxy)ethyl)morpholine] gave a Ki on human MIF of 29600 nM.
Still for that read-out and setting: then `COCCOc1ccc(Oc2cccc3nc(-c4cn(-c5ccc(O)cc5)nn4)ccc23)cc1` [Example 24, 4-(4-(5-(4-(2-Methoxyethoxy)phenoxy)quinolin-2-yl)-1H-1,2,3-triazol-1-yl)phenol], with 360 nM; and `COCCOc1cccc(Oc2cccc3nc(-c4cn(-c5ccc(O)c(F)c5)nn4)ccc23)c1` [Example 25, 2-Fluoro-4-(4-(5-(3-(2-methoxyethoxy)phenoxy)quinolin-2-yl)-1H-1,2,3-triazol-1-yl)phenol], with 82 nM; and `Oc1ccc(-n2cc(-c3ccc4cccnc4n3)nn2)cc1` [Example 26, 4-(4-(1,8-Naphthyridin-2-yl)-1H-1,2,3-triazol-1-yl)phenol], with 1480 nM.
Regarding `Clc1ccc(-n2cc(-c3ccc4cccnc4n3)nn2)cc1` [Example 27, 2-(1-(4-Chlorophenyl)-1H-1,2,3-triazol-4-yl)-1,8-naphthyridine], the inhibition at 10 µM at human MIF is 9%.
For the compound `NCCOCCOc1ccc2nc(-c3cn(-c4ccc(O)cc4)nn3)ccc2c1` [Example 28, 4-(4-(6-(2-(2-Aminoethoxy)ethoxy)quinolin-2-yl)-1H-1,2,3-triazol-1-yl)phenol], the solubility in the data set “Aqueous solubility” worked out at 13.9 µg/mL (≈ 35.5 µM).
The compound `Oc1ccc(-n2cc(-c3ccc4ccc(OCCOCCN5CCOCC5)cc4n3)nn2)cc1` [Example 29, 4-(4-(7-(2-(2-Morpholinoethoxy)ethoxy)quinolin-2-yl)-1H-1,2,3-triazol-1-yl)phenol] yielded a Ki on human MIF of 850 nM.
Same read-out and setting: with `Oc1ccc(-n2cc(-c3ccc4ccc(OCCOCCN5CCOCC5)cc4n3)nn2)cc1F` [Example 30, 2-Fluoro-4-(4-(7-(2-(2-morpholinoethoxy)ethoxy)quinolin-2-yl)-1H-1,2,3-triazol-1-yl)phenol] the figure was 290 nM.
At human MIF, `COCCOc1ccc2nc(-c3cn(-c4ccc(O)cc4)nn3)ncc2c1` [Example 31, 4-(4-(6-(2-Methoxyethoxy)quinazolin-2-yl)-1H-1,2,3-triazol-1-yl)phenol] had a Ki of 2350 nM.
In the data set “Aqueous solubility”, `O=C(O)c1cccc(Oc2cccc3nc(-c4cn(-c5ccc(O)c(F)c5)nn4)ccc23)c1` [Example 32, 3-((2-(1-(3-Fluoro-4-hydroxyphenyl)-1H-1,2,3-triazol-4-yl)quinolin-5-yl)oxy)benzoic acid] registered a solubility of 47.2 µg/mL (≈ 107 µM).
For `Oc1c(F)cc(-n2cc(-c3ccc4cc(OCCOCCN5CCOCC5)ccc4n3)nn2)cc1F` [Example 33, 2,6-Difluoro-4-(4-(6-(2-(2-morpholinoethoxy)ethoxy)quinolin-2-yl)-1H-1,2,3-triazol-1-yl)phenol], the Ki at human MIF was found to be 3750 nM.
In turn, `O=C(O)c1ccc(Oc2cccc3nc(-c4cn(-c5ccc(O)c(F)c5)nn4)ccc23)cc1` [Example 35, 4-((2-(1-(3-Fluoro-4-hydroxyphenyl)-1H-1,2,3-triazol-4-yl)quinolin-5-yl)oxy)benzoic acid] displayed a Ki on human MIF of 110 nM.
With `O=C(O)c1cccc(Oc2cccc3nc(-c4cn(-c5ccc(F)c(F)c5)nn4)ccc23)c1` [Example 36, 3-((2-(1-(3,4-Difluorophenyl)-1H-1,2,3-triazol-4-yl)quinolin-5-yl)oxy)benzoic acid], the Ki at human MIF came to 4930 nM.
Take `NCc1cccc(Oc2cccc3nc(-c4cn(-c5ccc(O)c(F)c5)nn4)ccc23)c1` [Example 37, 4-(4-(5-(3-(Aminomethyl)phenoxy)quinolin-2-yl)-1H-1,2,3-triazol-1-yl)-2-fluorophenol]: the affinity at human MIF corresponds to a Ki of 568 nM.
Turning to `Oc1ccc(-n2cc(-c3ccc4c(Oc5cccc(OCCOCCN6CCOCC6)c5)cccc4n3)nn2)cc1F` [Example 38, 2-Fluoro-4-(4-(5-(3-(2-(2-morpholinoethoxy)ethoxy)phenoxy)quinolin-2-yl)-1H-1,2,3-triazol-1-yl)phenol], at human MIF, the Ki amounted to 128 nM.
`O=C(O)c1ccc(Oc2cccc3ccc(-c4cn(-c5ccc(O)c(F)c5)nn4)nc23)cc1` [Example 39, 4-((2-(1-(3-Fluoro-4-hydroxyphenyl)-1H-1,2,3-triazol-4-yl)quinolin-8-yl)oxy)benzoic acid] displayed a Ki at human MIF of 296 nM.
The same measure, in the same setting: with `O=C(O)c1cccc(Oc2cccc3ccc(-c4cn(-c5ccc(O)c(F)c5)nn4)nc23)c1` [Example 40, 3-((2-(1-(3-Fluoro-4-hydroxyphenyl)-1H-1,2,3-triazol-4-yl)quinolin-8-yl)oxy)benzoic acid] the figure was 112 nM; with `O=C(O)COc1ccc2ccc(-c3cn(-c4ccc(O)c(F)c4)nn3)nc2c1` [Example 41, 2-((2-(1-(3-Fluoro-4-hydroxyphenyl)-1H-1,2,3-triazol-4-yl)quinolin-7-yl)oxy)acetic acid], 2240 nM.
For `O=C(O)CCCOc1ccc2ccc(-c3cn(-c4ccc(O)c(F)c4)nn3)nc2c1` [Example 42, 4-((2-(1-(3-Fluoro-4-hydroxyphenyl)-1H-1,2,3-triazol-4-yl)quinolin-7-yl)oxy)butanoic acid], the Ki at human MIF is 43 nM.
